Experimental data as given in patent US20240199618A1, “NOVEL N-ACYL-[3-SUBSTITUTED]-[8-SUBSTITUTED]-5,6-DIHYDRO-[1,2,4]TRIAZOLO[4,3-a]PYRAZINES AS SELECTIVE NK-3 RECEPTOR ANTAGONISTS, PHARMACEUTICAL COMPOSITION, METHODS FOR USE IN NK-3 RECEPTOR-MEDIATED DISORDERS” (Ogeda SA, priority 2013, published 2024).
Read-outs that look alike come from different tables or passages of the source.

What was measured:
human NK-3 receptor [1] = biological target: T1, human NK-3 receptor (Homo sapiens (Human), UniProt P29371); assay: Aequorin functional assay with human NK-3 receptor (antagonist testing vs NKA); assay type: cell-based; conditions: CHO cells, NKA at EC80 (3 nM); read-out: Functional assay: Aequorin assay with human NK-3 receptor hNK-3-AEQ (antagonist IC50)
Procedure: Aequorin Assay with Human NK-3 Receptor
Changes in intracellular calcium levels are a recognized indicator of G protein-coupled receptor activity. The efficacy of compounds of the invention to inhibit NKA-mediated NK-3 receptor activation was assessed by an in vitro Aequorin functional assay. Chinese Hamster Ovary recombinant cells expressing the human NK-3 receptor and a construct that encodes the photoprotein apoaequorin were used for this assay. In the presence of the cofactor coelenterazine, apoaequorin emits a measurable luminescence that is proportional to the amount of intracellular (cytoplasmic) free calcium.
The antagonist activity of compounds of the invention is measured following pre-incubation (3 minutes) of the compound (at various concentrations) with the cells, followed by addition of the reference agonist (NKA) at a final concentration equivalent to the EC80 (3 nM) and recording of emitted light (FDSS 6000 Hamamatsu) over the subsequent 90-second period. The intensity of the emitted light is integrated using the reader software. Compound antagonist activity is measured based on the concentration-dependent inhibition of the luminescence response to the addition of Neurokinin A.

human NK-3 receptor [2] = biological target: T1, human NK-3 receptor; assay: 3H-SB222200 binding competition assay with human NK-3 receptor
Procedure: The affinity of compounds of the invention for the human NK-3 receptor was determined by measuring the ability of compounds of the invention to competitively and reversibly displace a well-characterized NK-3 radioligand in a concentration-dependent manner.
^3H-SB222200 Binding Competition Assay with Human NK-3 Receptor
Membranes were prepared from Chinese hamster ovary recombinant cells stably expressing the human NK-3 receptor. The membranes were incubated with 5 nM ^3H-SB222200 (ARC) in a HEPES 25 mM/NaCl 0.1M/CaCl2 1 mM/MgCl2 5 mM/BSA 0.5%/Saponin 10 μg/ml buffer at pH 7.4 and various concentrations of compounds of the invention. The amount of ^3H-SB222200 bound to the receptor was determined after filtration by the quantification of membrane associated radioactivity using the TopCount-NXT reader (Packard).

human NK-1 receptor = human NK-1 receptor (Homo sapiens (Human), UniProt P25103); assay: Selectivity assay: [3H] substance P binding, human NK-1 receptor; conditions: 2 nM [3H] substance P, CHO membranes; read-out: hNK-1 (Ki)
Procedure: Selectivity of the compounds of the invention was determined over the other human NK receptors, namely NK-1 and NK-2 receptors.
The affinity of compounds of the invention for the NK-1 receptor was evaluated in CHO recombinant cells which express the human NK-1 receptor. Membrane suspensions were prepared from these cells. The following radioligand: [^3H] substance P (PerkinElmer Cat #NET111520) was used in this assay. Binding assays were performed in a 50 mM Tris/5 mM MnCl2/150 mM NaCl/0.1% BSA at pH 7.4. Binding assays consisted of 25 μl of membrane suspension (approximately 5 μg of protein/well in a 96 well plate), 50 μl of compound or reference ligand (Substance P) at increasing concentrations (diluted in assay buffer) and 2 nM [^3H] substance P. The plate was incubated 60 min at 25° C. in a water bath and then filtered over GF/C filters (Perkin Elmer, 6005174, presoaked in 0.5% PEI for 2 h at room temperature) with a Filtration unit (Perkin Elmer). The radioactivity retained on the filters was measured by using the TopCount-NXT reader (Packard).

human NK-2 receptor = human NK-2 receptor (Homo sapiens (Human), UniProt P21452); assay: Selectivity assay: [125I]-Neurokinin A binding, human NK-2 receptor; conditions: 0.1 nM [125I]-Neurokinin A, CHO membranes; read-out: hNK-2 (Ki)
Procedure: The affinity of compounds of the invention for the NK-2 receptor was evaluated in CHO recombinant cells which express the human NK-2 receptor. Membrane suspensions were prepared from these cells. […] Binding assays were performed in a 25 mM HEPES/1 mM CaCl2)/5 mM MgCl2/0.5% BSA/10 μg/ml saponin, at pH 7.4. […] The radioactivity retained on the filters was measured by using the TopCount-NXT reader (Packard).

plasma protein = assay: Determination of plasma protein binding (equilibrium dialysis, RED); assay type: in vitro ADME; conditions: 4 hours at 37° C.
Excerpt: Determination of plasma protein binding The pharmacokinetic and pharmacodynamic properties of chemicals/drugs are largely a function of the reversible binding of chemicals to plasma or serum proteins. […] Consequently, the extent of the plasma protein binding (PPB) of a compound influences its action as well as its distribution and elimination.
The determination of plasma protein binding (PPB) of a compound is enabled by equilibrium dialysis, an accepted and standard method for reliable estimation of the non-bound drug fraction in plasma. RED (Rapid Equilibrium Dialysis) device insert is made of two side-by-side chambers separated by an O-ring-sealed vertical cylinder of dialysis membrane (MWCO ˜8,000). […] After 4 hours incubation at 37° C. under shaking, an aliquot is removed from each chamber and analyzed by a LC-MS/MS procedure enables the determination of both free and bound drug.
The “free fraction” may be calculated as 100%−% rPPB (i.e. the complementary percentage of that disclosed in Table 4, corresponding to the drug concentration that is unbound and therefore available to engage biological target and elicit pharmacological activity).

[3] = Table 2, 5 nM 3H-SB222200, CHO membranes, read-out: Competitive binding assay with human NK-3 receptor hNK-3 (Ki)
[4] = Table 3 (selectivity table), read-out: hNK-3 (Ki)

T1 sequence (P29371 whole entry): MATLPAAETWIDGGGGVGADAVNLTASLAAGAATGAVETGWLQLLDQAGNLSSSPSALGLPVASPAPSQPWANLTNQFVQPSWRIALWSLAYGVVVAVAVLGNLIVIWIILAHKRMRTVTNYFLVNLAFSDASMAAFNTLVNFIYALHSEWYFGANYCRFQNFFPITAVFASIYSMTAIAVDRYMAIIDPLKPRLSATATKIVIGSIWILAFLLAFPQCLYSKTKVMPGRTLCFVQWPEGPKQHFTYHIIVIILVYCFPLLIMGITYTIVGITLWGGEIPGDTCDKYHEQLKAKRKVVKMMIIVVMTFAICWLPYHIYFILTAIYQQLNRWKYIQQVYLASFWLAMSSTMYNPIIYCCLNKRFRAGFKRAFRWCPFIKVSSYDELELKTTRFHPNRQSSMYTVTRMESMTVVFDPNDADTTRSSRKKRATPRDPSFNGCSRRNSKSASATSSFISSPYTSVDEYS
Sequence of human NK-2 receptor (P21452 whole entry): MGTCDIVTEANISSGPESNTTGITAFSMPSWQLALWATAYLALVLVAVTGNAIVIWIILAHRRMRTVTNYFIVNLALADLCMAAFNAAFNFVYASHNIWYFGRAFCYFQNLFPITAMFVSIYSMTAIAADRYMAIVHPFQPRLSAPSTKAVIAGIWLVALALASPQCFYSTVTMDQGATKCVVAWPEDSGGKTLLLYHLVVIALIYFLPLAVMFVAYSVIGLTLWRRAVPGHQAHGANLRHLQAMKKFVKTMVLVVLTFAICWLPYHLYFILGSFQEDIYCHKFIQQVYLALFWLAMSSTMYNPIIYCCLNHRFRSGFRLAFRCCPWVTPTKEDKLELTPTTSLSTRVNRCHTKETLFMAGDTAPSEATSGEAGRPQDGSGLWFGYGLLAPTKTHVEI
Sequence of human NK-1 receptor (P25103 whole entry): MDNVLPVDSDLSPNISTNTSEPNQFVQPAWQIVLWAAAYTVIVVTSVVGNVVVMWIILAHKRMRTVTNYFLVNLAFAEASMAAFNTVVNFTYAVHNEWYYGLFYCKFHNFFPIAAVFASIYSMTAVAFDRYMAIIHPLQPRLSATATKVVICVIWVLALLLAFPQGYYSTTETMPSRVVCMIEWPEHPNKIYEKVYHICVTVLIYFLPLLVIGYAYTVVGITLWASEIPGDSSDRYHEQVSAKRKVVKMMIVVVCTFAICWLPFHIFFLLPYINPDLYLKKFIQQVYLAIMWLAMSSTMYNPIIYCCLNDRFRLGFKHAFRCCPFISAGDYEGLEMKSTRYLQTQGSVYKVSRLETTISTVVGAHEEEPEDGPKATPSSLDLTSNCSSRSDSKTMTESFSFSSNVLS

Row | Structure (SMILES) | IC50 (human NK-3 receptor [1]) [nM] | Ki (human NK-3 receptor [2]; [3]) [nM] | Ki (human NK-3 receptor [2]; [4]) [nM] | Ki (human NK-1 receptor) [nM] | Ki (human NK-2 receptor) [nM] | Exposure (% rPPB), bound drug fraction to plasma protein (plasma protein) [%]
1 | Cc1nsc(-c2nnc3n2CCN(C(=O)c2ccc(F)cc2F)[C@@H]3C)n1 [Compound 18, (R)-(2,4-difluorophenyl)(8-methyl-3-(3-methyl-1,2,4-thiadiazol-5-yl)-5,6-dihydro-[1,2,4]triazolo[4,3-a]pyrazin-7(8H)-yl)methanone] | 87 | 54 | 54 | > 30000 | > 30000 | 23
2 | C[C@@H]1c2nnc(-c3nc(C(C)(F)F)no3)n2CCN1C(=O)c1ccc(F)cc1 [Compound 43, (R)-(3-(3-(1,1-difluoroethyl)-1,2,4-oxadiazol-5-yl)-8-methyl-5,6-dihydro-[1,2,4]triazolo[4,3-a]pyrazin-7(8H)-yl)(4-fluorophenyl)methanone] | 136 | 59 | 59 | > 30000 | > 30000 | 47
3 | Cc1nsc(-c2nnc3n2CCN(C(=O)c2cccc(Cl)c2)[C@@H]3C)n1 [Compound 16, (R)-(3-chlorophenyl)(8-methyl-3-(3-methyl-1,2,4-thiadiazol-5-yl)-5,6-dihydro-[1,2,4]triazolo[4,3-a]pyrazin-7(8H)-yl)methanone] | 71 | 49 | 49 | > 30000 | 37000 | 36
4 | Cc1nsc(-c2nnc3n2CCN(C(=O)c2ccc(F)c(Cl)c2)C3C)n1 (racemic) [Compound 35, (3-chloro-4-fluorophenyl)(8-methyl-3-(3-methyl-1,2,4-thiadiazol-5-yl)-5,6-dihydro-[1,2,4]triazolo[4,3-a]pyrazin-7(8H)-yl)methanone] | 54 | 73 | 73 | > 30000 | 30000 | 52
5 | CCc1noc(-c2nnc3n2CCN(C(=O)c2ccc(F)cc2)C3C)n1 (racemic) [Compound 40, (3-(3-ethyl-1,2,4-oxadiazol-5-yl)-8-methyl-5,6-dihydro-[1,2,4]triazolo[4,3-a]pyrazin-7(8H)-yl)(4-fluorophenyl)methanone] | 130 | 83 | 83 | > 30000 | > 30000 | 24
6 | CC(F)c1noc(-c2nnc3n2CCN(C(=O)c2ccc(F)cc2)[C@@H]3C)n1 (stereo partly drawn) [Compound 45, ((8R)-3-(3-(1-fluoroethyl)-1,2,4-oxadiazol-5-yl)-8-methyl-5,6-dihydro-[1,2,4]triazolo[4,3-a]pyrazin-7(8H)-yl)(4-fluorophenyl)methanone] | 244 | 101 | 101 | > 30000 | > 30000 | 31
7 | Cc1nsc(-c2nnc3n2CCN(C(=O)c2ccc(C(F)(F)F)cc2)[C@@H]3C)n1 [Compound 21, (R)-(8-methyl-3-(3-methyl-1,2,4-thiadiazol-5-yl)-5,6-dihydro-[1,2,4]triazolo[4,3-a]pyrazin-7(8H)-yl)(4-(trifluoromethyl)phenyl)methanone] | 150 | 63 | 63 | > 30000 | > 30000 | 38
8 | Cc1nsc(-c2nnc3n2CCN(C(=O)c2cc(F)c(F)c(F)c2)C3C)n1 (racemic) [Compound 34, (8-methyl-3-(3-methyl-1,2,4-thiadiazol-5-yl)-5,6-dihydro-[1,2,4]triazolo[4,3-a]pyrazin-7(8H)-yl)(3,4,5-trifluorophenyl)methanone] | 62 | 38 | 38 | > 30000 | > 30000 | 24
9 | Cc1nsc(-c2nnc3n2CCN(C(=O)c2ccc(Cl)c(F)c2)C3C)n1 (racemic) [Compound 36, (4-chloro-3-fluorophenyl)(8-methyl-3-(3-methyl-1,2,4-thiadiazol-5-yl)-5,6-dihydro-[1,2,4]triazolo[4,3-a]pyrazin-7(8H)-yl)methanone] | 58 | 43 | 43 | > 30000 | 36000 | 60
10 | CCC[C@@H]1c2nnc(-c3nc(C)ns3)n2CCN1C(=O)c1ccc(F)cc1 [Compound 24, (R)-(4-fluorophenyl)(3-(3-methyl-1,2,4-thiadiazol-5-yl)-8-propyl-5,6-dihydro-[1,2,4]triazolo[4,3-a]pyrazin-7(8H)-yl)methanone] | 120 | 78 | 78 | > 30000 | > 30000 | 48
11 | Cc1nsc(-c2nnc3n2CCN(C(=O)c2ccc(F)cc2)[C@@H]3CCO)n1 [Compound 11, (R)-(4-fluorophenyl)(8-(2-hydroxyethyl)-3-(3-methyl-1,2,4-thiadiazol-5-yl)-5,6-dihydro-[1,2,4]triazolo[4,3-a]pyrazin-7(8H)-yl)methanone] | 73 | 32 | 32 | 22000 | > 30000 | 
12 | Cc1nsc(-c2nnc3n2CCN(C(=O)c2ccc(Cl)cc2)[C@@H]3C)n1 [Compound 3, (R)-(4-chlorophenyl)(8-methyl-3-(3-methyl-1,2,4-thiadiazol-5-yl)-5,6-dihydro-[1,2,4]triazolo[4,3-a]pyrazin-7(8H)-yl)methanone] | 32 | 19 | 19 | > 30000 | > 30000 | 
13 | Cc1nsc(-c2nnc3n2CCN(C(=O)c2ccc(Cl)cc2)C3C)n1 (racemic) [Compound 37, (4-chlorophenyl)(8-methyl-3-(3-methyl-1,2,4-thiadiazol-5-yl)-5,6-dihydro-[1,2,4]triazolo[4,3-a]pyrazin-7(8H)-yl)methanone] | 52 | 41 | 41 | 32000 | > 30000 | 
14 | COc1cccc(C(=O)N2CCn3c(-c4nc(C)ns4)nnc3[C@H]2C)c1 [Compound 27, (R)-(3-methoxyphenyl)(8-methyl-3-(3-methyl-1,2,4-thiadiazol-5-yl)-5,6-dihydro-[1,2,4]triazolo[4,3-a]pyrazin-7(8H)-yl)methanone] |  |  |  |  |  | 24
15 | CCC1c2nnc(-c3nc(C)ns3)n2CCN1C(=O)c1ccc(F)cc1 (racemic) [Compound 23, (8-ethyl-3-(3-methyl-1,2,4-thiadiazol-5-yl)-5,6-dihydro-[1,2,4]triazolo[4,3-a]pyrazin-7(8H)-yl)(4-fluorophenyl)methanone] |  |  |  |  |  | 34
